Patent US20040198758A1, “N-heterocyclyl substituted thienyloxy-pyrimidines used as herbicides” (priority 2001, published 2004)

How the values were obtained:
Test in all cases: greenhouse post-emergence herbicidal treatment
Type in all cases: in vivo
Conditions in all cases: application rates of 0.25 or 0.125 kg/ha
Chenopodium album = tested on: Chenopodium album
Source text: (§1) The seeds of the test plants were sown separately for each species. For the post-emergence treatment, the test plants were first grown to a height of from 3 to 15 cm, depending on the plant habit, and only then treated with the active compounds which had been suspended or emulsified in water. The test plants were for this purpose either sown directly and grown in the same containers., or they were first grown separately as seedlings and transplanted into the test containers a few days prior to treatment. The application rate for the post-emergence treatment was 0.25 or 0.125 kg of a.s. (active substance)/ha. Depending on the species, the plants were kept at 10-25° C. or 20-35° C. The test period extended over 2 to 4 weeks. During this time, the plants were tended, and their response to the individual treatments was evaluated. Evaluation was carried out using a scale from 0 to 100. 100 means no emergence of the plants, or complete destruction of at least the above-ground parts and 0 means no damage, or normal course of growth. The plants used in the greenhouse experiments were of the following species: [table]

Galium aparine = tested on: Galium aparine
Source text: as §1

Pharbitis purpurea = tested on: Pharbitis purpurea
Source text: as §1

Polygonum persicaria = tested on: Polygonum persicaria
Source text: as §1

Amaranthus retroflexus = tested on: Amaranthus retroflexus
Source text: as §1

Cc1cnc(-n2ccc(C(F)(F)F)n2)nc1Oc1csc(C(F)(F)F)c1 [I 1.1, 5-methyl-2-[3-(trifluoromethyl)-1H-pyrazol-1-yl]-4-{[5-(trifluoromethyl)-3-thienyl]oxy}pyrimidine]
very good: post-emergence action against Chenopodium album (Chenopodium album) | post-emergence action against Galium aparine (Galium aparine) | post-emergence action against Pharbitis purpurea (Pharbitis purpurea) | post-emergence action against Polygonum persicaria (Polygonum persicaria) | post-emergence action against Amaranthus retroflexus (Amaranthus retroflexus)
